Consider eight compounds from ChEMBL document CHEMBL1122521, “Nucleic acid related compounds. 47. Synthesis and biological activities of pyrimidine and purine "acyclic" nucleoside analogues” (J Med Chem, 1984).

SMILES strings stand for the structures. ≈ marks a conversion by molar mass, not a printed value.

Holding throughout (format): functional
The subject of assay [1] is L1210. Kind of assay: Inhibitory concentration required to reduce [3H1',2']dUrd incorporation into cellular DNA by 50% in Murine Leukemia L1210 cells. As to conditions: Mus musculus, read-out: ID50 (the source's name).
A short description of assay [2]: Inhibitory concentration required to reduce 2-deoxyuridine ([3H-1'2']dUrd) incorporation into DNA of Primary Rabbit kidney (PRK) cell cultures. As to conditions: Oryctolagus cuniculus, read-out: ID50 (the source's name).
The nature of assay [3]: Ratio of ID50 for dThd or dUrd incorporation to ID50 for HSV-1, HSV-2 or VV(whatever was lowest).
The test system of a further assay is Human alphaherpesvirus 1. The assay can be described thus: Concentration required to reduce cytopathogenicity of Herpes simplex virus type 1 (strain KOS) by 50% in primary rabbit kidney (PRK) cells. Background: Cytopathic effects are the visible damage that an infection or toxin causes in cultured cells.
Assay [4] concerns Vesicular stomatitis virus. The assay can be described thus: Concentration required to reduce cytopathogenicity of Vesicular stomatitis virus by 50% in primary rabbit kidney (PRK) cells.
Assay [5] concerns L1210. The assay can be described thus: Inhibitory concentration required to reduce cell growth of Murine Leukemia L1210 cells. The conditions noted are these: Mus musculus, read-out: ID50 (the source's name).
The next assay concerns Human alphaherpesvirus 2. Kind of assay: Concentration required to reduce cytopathogenicity of Herpes simplex virus type 2 (strain G) by 50% in primary rabbit kidney (PRK) cells.
Assay [6] is described as follows: Inhibitory concentration required to reduce incorporation of 2-deoxythymidine (dThd) into DNA of Primary Rabbit kidney (PRK) cell cultures. As to conditions: Oryctolagus cuniculus, read-out: ID50 (the source's name).
In assay [7] the test system is L1210. The assay can be described thus: Inhibitory concentration required to reduce [3H-methyl]-dThd C incorporation into cellular DNA by 50% in Murine Leukemia L1210 cells. The conditions noted are these: Mus musculus, read-out: ID50 (the source's name).
For assay [8], the system named is L1210. Kind of assay: Inhibitory concentration required to reduce [14C-2]-dUrd incorporation into cellular DNA by 50% in Murine Leukemia L1210 cells. As to conditions: Mus musculus, read-out: ID50 (the source's name).
A short description of assay [9]: Inhibitory concentration required to reduce incorporation of 2-deoxyuridine (dUrd) into DNA of Primary Rabbit kidney (PRK) cell cultures. As to conditions: Oryctolagus cuniculus, read-out: ID50 (the source's name).
The test system of assay [10] is L1210. The assay can be described thus: Inhibitory concentration required to reduce [3H1',2']dUrd incorporation into cellular DNA by 50 %. As to conditions: Mus musculus, read-out: ID50 (the source's name).

Consider `CC(=O)OCCOCn1cnc2c(Cl)nc(N)nc21`, for which the IC50 in the assay with L1210 [1] is above 1000 µg/mL; in assay [2] it was 71 µg/mL (≈ 249 µM); in the assay with L1210 [5] it was 91 µg/mL (≈ 319 µM); in assay [6], 55 µg/mL (≈ 193 µM); in the assay on L1210 [7] it was above 1000 µg/mL. Besides, the Antiviral index in assay [3] turned out to be 2.7. Besides, the ID50 with Human alphaherpesvirus 1 was 20 µg/mL (≈ 70 µM); in assay [4], above 400 µg/mL; in the assay on Human alphaherpesvirus 2, 20 µg/mL (≈ 70 µM).

As for `O=c1[nH]c(=O)n([C@H]2C[C@H](O)[C@@H](CO)O2)cc1F` [FLOXURIDINE], the results for the IC50 with L1210 [8], in the assay on L1210 [5] and in the assay with L1210 [7] were 0.003 µg/mL (≈ 0.0122 µM), 0.001 µg/mL (≈ 0.00406 µM) and 80 µg/mL (≈ 325 µM), respectively.

In the case of `Nc1nc2c(ncn2COCCO)c(=O)[nH]1` [ACYCLOVIR], the IC50 in the assay with L1210 [1] was 50 µg/mL (≈ 222 µM); in assay [2], 13 µg/mL (≈ 57.7 µM); in the assay on L1210 [5] it was 13 µg/mL (≈ 57.7 µM); in assay [6], 12 µg/mL (≈ 53.3 µM); with L1210 [7], 367 µg/mL (≈ 1630 µM). In addition, in [3], the Antiviral index was 300. Besides, the ID50 is 0.05 µg/mL (≈ 0.222 µM) in the assay on Human alphaherpesvirus 1, above 400 µg/mL in [4] and 0.04 µg/mL (≈ 0.178 µM) in the assay on Human alphaherpesvirus 2.

As to `Nc1nc(Cl)c2ncn(COCCO)c2n1`, the IC50 was above 1000 µg/mL in the assay with L1210 [1]; above 100 µg/mL in assay [2]; 69 µg/mL (≈ 283 µM) in the assay on L1210 [5]; 50 µg/mL (≈ 205 µM) in assay [6]; above 1000 µg/mL in the assay with L1210 [7]. For the same compound, the Antiviral index in assay [3] was found to be 25. The ID50 is 2 µg/mL (≈ 8.21 µM) in the assay with Human alphaherpesvirus 1, above 400 µg/mL in assay [4] and 20 µg/mL (≈ 82.1 µM) in the assay on Human alphaherpesvirus 2.

For the compound `O=c1[nH]c(=O)n([C@H]2C[C@H](O)[C@@H](CO)O2)cc1I` [IDOXURIDINE], the IC50 in the assay with L1210 [8] was determined as 0.82 µg/mL (≈ 2.32 µM); with L1210 [5], 61 µg/mL (≈ 172 µM); in assay [6] it was 2 µg/mL (≈ 5.65 µM); in the assay with L1210 [7], 4.3 µg/mL (≈ 12.1 µM); in assay [9], 0.3 µg/mL (≈ 0.847 µM). For the same compound, the Antiviral index in [3] stood at 3. Besides, the ID50 with Human alphaherpesvirus 1 is 0.1 µg/mL (≈ 0.282 µM); in assay [4], above 400 µg/mL; in the assay on Human alphaherpesvirus 2 it was 0.3 µg/mL (≈ 0.847 µM).

As for `Nc1nc2c(nc(Cl)n2COCCO)c(=O)[nH]1`, the IC50 in the assay with L1210 [1] was above 1000 µg/mL; in [2], above 400 µg/mL; with L1210 [5], 350 µg/mL (≈ 1350 µM); in assay [6] it was above 400 µg/mL; in the assay with L1210 [7] it was above 1000 µg/mL. In addition, the Antiviral index in assay [3] is above 6. Moreover, the ID50 in the assay with Human alphaherpesvirus 1 was 70 µg/mL (≈ 270 µM); with Human alphaherpesvirus 2 it was above 400 µg/mL.

As to `OCCOCn1cnc2c(O)ncnc21`, the IC50 is above 1000 µg/mL with L1210 [1]; above 100 µg/mL in assay [2]; above 1000 µg/mL in the assay with L1210 [5]; above 100 µg/mL in assay [6]; above 1000 µg/mL in the assay on L1210 [7]. Also, the ID50 in the assay with Human alphaherpesvirus 1 and with Human alphaherpesvirus 2 was above 400 µg/mL each time.

For the compound `Nc1nc2c(nc(O)n2COCCO)c(=O)[nH]1`, the IC50 in [2] was at least 100 µg/mL; in the assay with L1210 [10], above 500 µg/mL; in the assay on L1210 [5] it was above 500 µg/mL; in assay [6], 48 µg/mL (≈ 199 µM); in the assay on L1210 [7], above 500 µg/mL. The Antiviral index in assay [3] turned out to be 3.2. Also, the ID50 with Human alphaherpesvirus 1 was 15 µg/mL (≈ 62.2 µM); in [4], above 400 µg/mL; in the assay on Human alphaherpesvirus 2 it was 25 µg/mL (≈ 104 µM).
